Source: PubChem BioAssay AID179 (DTP/NCI, 2004)
pEC50, pIC50: −log10 of the molar value. The source made the active and inactive calls.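 How the source made its calls: active means compounds giving half or more protection of infected cells from virus-caused growth loss, again on retest; inactive means the rest.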 Where a SMILES comes first, the peptide text is derived from it.

Test system: CEM cells HIV-1 protection, formazan growth assay
Assay: NCI AIDS Antiviral Assay
Conditions: for pIC50: measured here: growth of uninfected CEM cells
In short: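 Human CEM cells, uninfected and HIV-1-infected, exposed to five drug concentrations; growth measured by soluble formazan assay and scored as percent protection from infection, with protecting compounds retested.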

Structure (SMILES) | pEC50 | pIC50 | outcome
CC1C(=NO)C(C)C(c2ccccc2)N(N=O)C1c1ccccc1 (configuration not stated) | < 3.70 | < 3.70 | 
O=C1CCC2=NCc3c(ccc4ccccc34)N12 | < 3.40 | 3.46 | 
N#CC(c1ccccn1)c1nc2ccccc2[nH]1 (configuration not stated) | < 5.07 | < 5.07 | 
CN1C(=O)C2CC(O)C(SC3CC4C(=O)N(C)C(=O)C4CC3O)CC2C1=O (configuration not stated) | < 3.70 | < 3.70 | 
COC(=O)/C(=C(\C)C=O)N1C(=O)C(NC(=O)c2ccccc2)C1SSc1nc2ccccc2s1 (configuration not stated) | < 3.70 | 4.89 | 
CC(=O)Oc1c(C)c2c(c3ncccc13)OC(C)C2 (configuration not stated) | < 3.70 | 5.50 | 
Cc1cnc(SCCN(C)C)nc1-c1cccs1 | < 3.05 | 4.65 | 
O=C(O)[C@@H]1CSC(c2cccc(F)c2)N1 (some centres not stated) | < 3.70 | < 3.70 | 
COc1ccc([C@H]2Oc3cc(OCc4ccccc4)c(O)cc3[C@@H]2C)c(OC)c1 | < 3.70 | 4.41 | 
CC(C(=O)NCCNC(=O)CCC(=O)N(C)O)C(=O)NCCNC(=O)CCC(=O)N(C)O | < 3.70 | 3.82 | 
NC(=S)N/N=C/c1cc(=O)c2cc(Cl)ccc2o1 | < 4.18 | < 4.18 | 
Nc1cc(F)c2cccnc2c1O | < 3.70 | 4.93 | 
Cc1cn(C2C(CO)C(CO)C2(F)F)c(=O)[nH]c1=O (configuration not stated) | < 3.70 | < 3.70 | 
CCNc1cc2c(cc1O)CC[C@@H]1[C@@H]2CC[C@]2(C)[C@@H](O)CC[C@@H]12 | < 3.70 | 5.41 | 
OC1(c2ccc(-c3ccccc3)cc2)c2ccccc2C2=NCCN21 (configuration not stated) | < 3.70 | < 4.00 | 
CCOP(=O)(OCC)/C(C#N)=C/c1cccc(Cl)c1 | < 3.65 | 3.76 | 
CC1OC(O[C@@H]2C=C3CC[C@@H]4[C@H](CC[C@]5(C)[C@@H](c6ccc(=O)oc6)CC[C@]45O)[C@@]3(C)CC2)C(O)C(OC2OC(CO)C(O)C(O)C2O)C1O (some centres not stated) | < 7.70 | 8.53 | 
N#CC(C#N)=Cc1ccccc1C(=O)O | < 3.70 | 3.96 | 
CC(=O)Nc1c(C)cc2c(nc3n2CCC3OC(C)=O)c1[N+](=O)[O-] (configuration not stated) | < 3.70 | < 3.70 | 
N#CCC(O)CC#N |  |  | inactive
O=C(O)[C@@H]1[C@H](OCc2ccccc2)[C@H](OCc2ccccc2)CN1C(=O)OCc1ccccc1 | < 3.70 | 3.94 | 
COC(=O)c1cc2c3ccccc3n(C(C)=O)c2cn1 |  |  | inactive
COc1cccc(-n2cccc2)c1 | < 3.70 | < 3.70 | 

Structure (SMILES) | pEC50 | pIC50 | outcome
COc1nc(=O)cc(N)n1C1OC(CO)C(O)C1O (configuration not stated) | < 3.04 | < 3.04 | 
Cc1ccc([N+](=O)[O-])cc1NC(=O)C(=O)Cc1occc(=O)c1O |  |  | inactive
CCOC(=O)c1cn(CC)c2cc3c(cc2c1=O)SCS3 |  |  | inactive
C(=C\N1CCCCC1)/c1nnnn1-c1ccccc1 | < 3.70 | 4.62 | 
CSc1c(C(=O)Nc2ccc(Cl)cc2)c(N)[nH]c(=O)c1C#N | < 3.70 | 5.92 | 
C1N2CN3CN1CN(C2)C3.[Cu+2] |  |  | inactive
C=CC(C#CC#CCCCCCCC)O[Si](C)(C)C(C)(C)C (configuration not stated) |  |  | inactive
CCOC(=O)/C=C/c1ccc(N(C)C)cc1 | < 4.48 | < 4.48 | 
O=C1CN(/C=C(/c2ccc(Cl)cc2)S(=O)(=O)Cc2ccc(Cl)cc2)C(=S)N1 | < 3.70 | < 3.70 | 
CCC(C)C(NC(=O)C(CCCN=C(N)N)NC(=O)C(CC(=O)O)NC(=O)C(Cc1cnc[nH]1)NC(=O)C(N)CC(C)C)C(=O)NC(C(=O)NC(CC(C)C)C(=O)NCC(=O)NC(CC(=O)O)C(=O)O)C(C)CC (configuration not stated) (H-LHDRIILGD-OH; configuration not given here) | < 4.23 | < 4.23 | 
CCOC(=O)c1c(C)c2c(n1C)CCc1cn[nH]c1-2 | < 3.72 | 3.90 | 
c1ccc(N/N=C2\NN=C(c3ccccc3)CS2)cc1 | < 4.18 | 4.45 | 
O=C1OC(=O)C2C1C1(c3ccccc3)C(=O)C2(c2ccccc2)C(c2ccccc2)=C1c1ccccc1 (configuration not stated) |  |  | inactive
NNC(=O)C1CC2c3ccccc3C1c1ccccc12 (configuration not stated) |  |  | inactive
COc1cc(C2C(=O)C(Cl)N2Nc2nc(C)cc(=O)[nH]2)cc(OC)c1OC (configuration not stated) | < 4.18 | 5.01 | 
CC(c1ccccc1)N1CC(=O)N([C@H](C)c2ccccc2)C1=O (some centres not stated) | < 3.70 | < 3.70 | 
CCCCN(Cc1ccccc1)C(=NC#N)N(Cc1ccccc1)Cc1ccccc1 | < 5.31 | < 5.31 | 
S=c1cn[nH]c2ccc(S)cc12 | < 3.74 | 3.99 | 
CC(=O)NC(CC(C)C(=O)O)(C(=O)O)C(=O)O (configuration not stated) | < 3.70 | < 3.70 | 
Cc1ccc(/C=C2\CCOC2=O)cc1 | < 3.86 | < 3.86 | 
N#Cc1c(=O)n(O)c2ccccc2[n+]1[O-] | < 3.70 | < 3.70 | 
C=C1CC(COc2ccc3c(C)cc(=O)oc3c2)(c2ccccc2)OC1=O (configuration not stated) | < 3.70 | 6.22 | 
Cc1cn(C2CCC3(CO)CC23)c(=O)[nH]c1=O (configuration not stated) | < 4.30 | < 4.30 | 

Structure (SMILES) | pEC50 | pIC50 | outcome
O=C(O)CCc1ccc2c(c1)C(=O)CC2 | < 3.70 | < 3.70 | 
CSc1nnc2sc3cc(C)ccc3n12 | < 3.70 | 3.91 | 
C1CCC2(CC1)CCCN2 | < 3.70 | < 3.70 | 
CNc1ccc(N=O)cc1 | < 3.70 | 5.97 | 
C[C@]12CC[C@H](CCC=C(c3cc(Cl)c(O)c(C(=O)O)c3)c3cc(Cl)c(O)c(C(=O)O)c3)C[C@@H]1CC[C@@H]1[C@@H]2CC[C@]2(C)[C@@H](CCC=C(c3cc(Cl)c(O)c(C(=O)O)c3)c3cc(Cl)c(O)c(C(=O)O)c3)CC[C@@H]12 | 5.18 | 3.96 | 
CN(C)P1(=O)NCC(C(C)(C)C)CO1 (configuration not stated) | < 3.25 | < 3.25 | 
CNc1ccc(S(=O)Nc2ccc(OC)cc2)cc1 (configuration not stated) | < 3.70 | 4.75 | 
COc1ccc(OC)c(/C=C/c2ccnc3ccccc23)c1 | 7.20 | 5.89 | 
O=[n+]1c2c(n([O-])c3ccccc31)-c1cccc3cccc-2c13 | < 3.70 | 3.89 | 
COc1ccc(OCC(=O)O)c2c1CCC(C(C)C)C2=O (configuration not stated) |  |  | inactive
COc1cc(C2c3cc4c(cc3CC3COC(=O)N32)OCO4)cc(OC)c1OC (configuration not stated) | < 4.60 | 5.86 | 
O=C(Nc1ccccc1)N1CCNC1=S | 3.79 | < 3.70 | 
O=C1/C=C(/c2ccc(O)cc2)[C@H](O)Cc2ccc(OC3OC(CO)C(O)C(O)C3O)cc2O1 (some centres not stated) (tested in a mixture with another compound) | < 3.60 | < 3.60 | 
CC1=NC(=Cc2ccc(Cl)cc2)C(=O)N1n1c(-c2ccccc2)nc2ccccc2c1=O | < 3.70 | 4.12 | 
C1OC1CN1CCC(C2CCN(CC3CO3)CC2)CC1 (configuration not stated) | < 3.70 | 6.57 | 
OC1=C(O)c2ccccc21 | < 2.73 | < 2.73 | 
CC1=C(c2cc(C(=O)Nc3cc(C)ccc3C)nc(N)n2)Sc2ccccc2N1 | < 4.89 | < 4.89 | 
CCC12CC[C@H](C#N)N3CCc4c(n(c5ccccc45)C(=O)C1)C32 (some centres not stated) |  |  | inactive
CC1OC(OC2C(O)C(O)C(N=C(N)N)C(O)C2N=C(N)N)C(OC2OC(CO)C(O)C(O)C2N(C)N=O)C1(O)C=O (configuration not stated) |  |  | inactive
CC1(CCc2ccccc2)CC1(Br)Br (configuration not stated) | < 3.70 | 4.02 | 
c1ccc(CN2CCC(=NN3CCCCC3)CC2)cc1 | < 3.70 | 4.05 | 
O=S1(=O)OCCOS(=O)(=O)C1Br | < 3.05 | 3.48 | 
C=CCC1(Sc2ccccn2)Sc2ccc3ccccc3c2-c2c(ccc3ccccc23)S1 | < 4.00 | < 4.00 | 

Structure (SMILES) | pEC50 | pIC50 | outcome
COC(=O)C12c3[nH]c4ccccc4c3CCN1CC(=O)C2C(=O)OCc1ccccc1 (configuration not stated) | < 4.04 | 4.24 | 
CCCC(=O)Nc1cc(/C=C/C(=O)N2CC(CCl)c3c2cc([N+](=O)[O-])c2ccccc32)n(C)c1 (configuration not stated) | < 5.70 | 6.10 | 
CC[C@@H]1CC[C@@H]2[C@H](CC[C@]3(C)[C@@H](O[N+](=O)[O-])CC[C@@H]23)[C@H]1C(C)=O |  |  | inactive
O=C1C(c2[nH]c3ccc(S(=O)(=O)O)cc3c2O)=Nc2ccc(S(=O)(=O)O)cc21 | < 3.70 | < 3.70 | 
CCCCC(=O)[O-].N.N.N.N.N.[Co+3].[O-][Cl+3]([O-])([O-])[O-] |  |  | inactive
CSCCC(NCc1c(O)ccc2ccc(=O)oc12)C(=O)O (configuration not stated) | < 3.70 | < 3.70 | 
CC12OC3(O)C4C5CC(C6C5C3C61)C42 (configuration not stated) |  |  | inactive
O=C(C=Nc1ccccc1C(=O)[O-])c1cccs1.O=C(C=Nc1ccccc1C(=O)[O-])c1cccs1.[Cu+2] |  |  | inactive
Cn1c(-c2ccccc2)c(CCNC(=O)C2CCC2)c2ccccc21 | < 3.70 | 4.50 | 
C/C(=N\NC(=O)c1ccncc1)c1cccc(C(F)(F)F)c1 | < 4.07 | < 4.07 | 
Cc1ccccc1N1C(=O)/C(=C/c2ccc(N(CCC#N)CCC#N)cc2)N=C1c1cc([N+](=O)[O-])ccc1Cl | < 5.01 | < 5.01 | 
O=C1NN(c2ccccc2)[C@@H]2CCCC[C@H]12 | < 3.36 | < 3.36 | 
C/C(=N/OC(=O)N(C)C)c1cc(Cl)ccc1Cl | < 3.70 | 3.87 | 
C[N+]1(Cc2ccco2)CCCCC1 | < 3.09 | < 3.09 | 
Cc1[nH]n(C(=O)c2ccccc2O)c(=O)c1/C=C1\C(=O)C=Cc2ccccc21 | < 4.71 | 6.40 | 
CC(C)(C)N=NNc1cn(C2OC(CO)C(O)C2O)c(=O)[nH]c1=O (configuration not stated) | < 3.14 | < 3.14 | 
C[C@@H](c1ccccc1)N1CN(C(=O)OCc2ccccc2)C(CO)C1=O (some centres not stated) | < 3.70 | 3.73 | 
CC/C(N)=N\NC(=O)OC(C)(C)C | < 3.70 | < 3.70 | 
COc1cc2ccc1-c1cc(ccc1O)CC1c3cc4c(cc3CCN1C)Oc1c(OC)cc3c(c1O4)C(C2)N(C)CC3 (configuration not stated) |  |  | inactive
O=c1c(-c2ccc(O)c(O)c2)coc2cc(O)cc(O)c12 | < 3.70 | 4.80 | 
